Legend:
Assay type in all cases: in vivo
[1] = system: southern armyworm (Spodopetra eridania Cramer); assay: Mite/insect screen, SAW; settings: percent mortality, SAW; for mortality at 200 ppm / mortality at 400 ppm: Spodoptera eridania, read-out: SAW RESULTS %; for mortality at 400 ppm: SM & MA RATE 400 PPM
Summary of the method: (§1)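 Compounds dissolved in 50:50 acetone/alcohol containing sulfonate/nonionic emulsifier blends, then diluted with water to the indicated concentrations. Leaves sprayed on both surfaces to runoff at 10 psi and dried one hour. Percent mortality scored after standard exposure periods.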

[2] = system: Septoria tritici (leaf blotch); assay: Test 1 greenhouse foliar spray screen, leaf blotch on wheat; settings: disease control rating, foliar spray on wheat, 400 ppm (+++ at 100 ppm)
[3] = system: Cercospora beticola (leaf spot); assay: Test 1 greenhouse foliar spray screen, leaf spot on sugar beet; settings: disease control rating, foliar spray on sugar beet, 400 ppm (+++ at 100 ppm)
[4] = system: Botrytis cinerea (gray mold); assay: Test 1 greenhouse foliar spray screen, gray mold on grape berries; settings: disease control rating, spray on grape berries, 400 ppm (+++ at 100 ppm)
[5] = system: melon aphids (Aphis gossypii Glover); assay: Mite/insect screen, MA; settings: percent mortality, SAW; for mortality at 200 ppm / mortality at 400 ppm: Aphis gossypii, read-out: MA RESULTS %; for mortality at 400 ppm: SM & MA RATE 400 PPM
Summary of the method: as §1

[6] = system: Erysiphe graminis tritici (powdery mildew); assay: Test 1 greenhouse foliar spray screen, powdery mildew on wheat; settings: disease control rating, foliar spray on wheat, 400 ppm (+++ at 100 ppm)
[7] = system: Pseudoperonospora cubensis (downy mildew); assay: Test 1 greenhouse foliar spray screen, downy mildew on squash; settings: for DOWN MDEW: disease control rating, foliar spray on squash, 400 ppm (+++ at 100 ppm)
[8] = system: corn rootworm; assay: Mite/insect screen, CRW; settings: percent mortality; for mortality at 12 ppm / mortality at 24 ppm: read-out: CRW RESULTS %; for mortality at 24 ppm: CRW RATE 24.00 PPM
Summary of the method: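 Compounds were dissolved in 50:50 acetone/alcohol containing sulfonate/nonionic emulsifier blends (23 g/L plus 13 g/L), then diluted with water to the test concentrations. Percent mortality was scored after standard exposure periods.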

[9] = system: Pyricularia oryzae (rice blast); assay: whole plant or invertebrate; settings: disease control rating, foliar spray on rice, 400 ppm (+++ at 100 ppm)
[10] = system: Venturia inaequalis (apple scab); assay: Test 1 greenhouse foliar spray screen, apple scab on apple seedling; settings: disease control rating, foliar spray on apple seedling, 400 ppm (+++ at 100 ppm)
[11] = system: Puccinia recondita tritici (leaf rust); assay: Test 1 greenhouse foliar spray screen, leaf rust on wheat; settings: disease control rating, foliar spray on wheat, 400 ppm (+++ at 100 ppm)
[12] = system: Twospotted spider mites (Tetranychus urticae Koch); assay: Mite/insect screen, SM; settings: for mortality at 200 ppm / mortality at 400 ppm: Tetranychus urticae, read-out: SM RESULTS %; for mortality at 400 ppm: SM & MA RATE 400 PPM
Summary of the method: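 Activity is expressed as percent mortality at the indicated spray concentrations. Plants are sprayed to runoff on upper and lower leaf surfaces with aqueous dilutions of an acetone/alcohol emulsifiable formulation, then dried for one hour.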

[13] = percent mortality, SAW, SM & MA RATE 200 PPM
[14] = summary statement in the description

Structure (SMILES) | mortality at 200 ppm ([1]; SM & MA RATE 200 PPM) [%] | mortality at 400 ppm [1] [%] | LEAF BLOT [2] | LEAF SPOT [3] | GRAY MOLD [4] | mortality at 200 ppm ([5]; SM & MA RATE 200 PPM) [%] | mortality at 400 ppm [5] [%] | POWD MDEW [6] | DOWN MDEW [7] | mortality at 12 ppm ([8]; CRW RATE 12.00 PPM) [%] | mortality at 24 ppm [8] [%] | RICE BLAST [9] | APPL SCAB [10] | LEAF RUST [11] | mortality at 200 ppm [12, 13] [%] | mortality at 400 ppm ([12]; percent mortality, SAW) [%] | further results
COc1ccc(CCNc2ccnc3cc(Cl)ccc23)cc1 [Example 84, 7-chloro-N-[2-(4-methoxyphenyl)ethyl]-4-quinolinamine] | 10 | 0 | - (0-19% control at 400 ppm) | + (20-89% control at 400 ppm) | - (0-19% control at 400 ppm) | 0 | 0 | +++ (90-100% control at 100 ppm) | ++ (90-100% control at 400 ppm) | 0 | 0 | ++ (90-100% control at 400 ppm) | - (0-19% control at 400 ppm) | ++ (90-100% control at 400 ppm) | 0 | 0 | 
Cc1ccc(CCNc2ccnc3c(Cl)cccc23)cc1 [Example 87, 8-chloro-N-[2-(4-methylphenyl)ethyl]-4-quinolinamine] | 0 | 0 | - (0-19% control at 400 ppm) | - (0-19% control at 400 ppm) | - (0-19% control at 400 ppm) | 0 | 0 | - (0-19% control at 400 ppm) | +++ (90-100% control at 100 ppm) | 0 | 0 | - (0-19% control at 400 ppm) | - (0-19% control at 400 ppm) | + (20-89% control at 400 ppm) | 0 | 0 | 
Cc1ccc2c(NCCc3ccc(Cl)cc3)ccnc2c1C [Example 88, N-[2-(4-chlorophenyl)ethyl]-7,8-dimethyl-4-quinolinamine] | 0 | 0 | - (0-19% control at 400 ppm) | + (20-89% control at 400 ppm) | - (0-19% control at 400 ppm) | 0 | 0 | - (0-19% control at 400 ppm) | ++ (90-100% control at 400 ppm) | 0 | 0 | - (0-19% control at 400 ppm) | - (0-19% control at 400 ppm) | ++ (90-100% control at 400 ppm) | 0 | 0 | 
Fc1cccc2c(NCCc3ccccc3)c(Br)cnc12 [Example 91, 3-bromo-8-fluoro-N-(2-phenylethyl)-4-quinolinamine] | 0 |  | - (0-19% control at 400 ppm) | - (0-19% control at 400 ppm) | - (0-19% control at 400 ppm) | 0 |  | + (20-89% control at 400 ppm) | ++ (90-100% control at 400 ppm) | 0 |  | + (20-89% control at 400 ppm) | - (0-19% control at 400 ppm) | - (0-19% control at 400 ppm) | 0 |  | 
CC(Cc1ccccc1)Nc1ccnc2c(F)cccc12 (stereo not drawn) [Example 92, 8-fluoro-H-(1-methyl-2-phenylethyl)-4-quinolinamine] | 0 |  | +++ (90-100% control at 100 ppm) | + (20-89% control at 400 ppm) | - (0-19% control at 400 ppm) | 0 |  | + (20-89% control at 400 ppm) | ++ (90-100% control at 400 ppm) | 0 |  | ++ (90-100% control at 400 ppm) | - (0-19% control at 400 ppm) | +++ (90-100% control at 100 ppm) | 0 |  | 
Clc1cc(NCCc2ccccc2)c2cccc(Cl)c2n1 [Example 93, 2,8-dichloro-N-(2-phenylethyl)-4-quinolinamine] | 0 |  | + (20-89% control at 400 ppm) | + (20-89% control at 400 ppm) | - (0-19% control at 400 ppm) | 0 |  | - (0-19% control at 400 ppm) | - (0-19% control at 400 ppm) | 0 |  | - (0-19% control at 400 ppm) | - (0-19% control at 400 ppm) | - (0-19% control at 400 ppm) | 0 |  | 
Fc1cccc2c(NCCc3ccc(Br)cc3)ccnc12 [Example 94, N-[2-(4-bromophenyl)ethyl]-8-fluoro-4-quinolinamine] | 0 |  | + (20-89% control at 400 ppm) | +++ (90-100% control at 100 ppm) | - (0-19% control at 400 ppm) | 0 |  | + (20-89% control at 400 ppm) | +++ (90-100% control at 100 ppm) | 100 |  | +++ (90-100% control at 100 ppm) | - (0-19% control at 400 ppm) | +++ (90-100% control at 100 ppm) | 0 |  | activity as miticides [12, 14]: particularly excellent activity
Fc1cccc2c(NCCc3cccc(C(F)(F)F)c3)ccnc12 [Example 95, 8-fluoro-N-[2-[3-(trifluoromethyl)phenyl]ethyl]-4-quinolinamine] | 20 |  | +++ (90-100% control at 100 ppm) | + (20-89% control at 400 ppm) | + (20-89% control at 400 ppm) | 0 |  | + (20-89% control at 400 ppm) | +++ (90-100% control at 100 ppm) | 0 |  | ++ (90-100% control at 400 ppm) | + (20-89% control at 400 ppm) | +++ (90-100% control at 100 ppm) | 0 |  | SAW RESULTS % ([1]; SM & MA RATE 200 PPM): 40%; MA RESULTS % ([5]; SM & MA RATE 200 PPM): 0%; activity against downy mildew [7, 14]: particularly excellent activity; CRW RESULTS % ([8]; CRW RATE 12.00 PPM): 0%; SM RESULTS % [12, 13]: 0%

— EP0326331B1, “Substituted quinolines and cinnolines” (Dow AgroSciences LLC, priority 1988, dated 1989)
